Source: a melting point compilation (Tetko et al.; mined from patent text by program, amines drawn as free bases though some values may be those of a salt)

Compound | melting point [°C]
COC(=O)N1CCC(C2(NO)OCCO2)C(=O)C1 (stereo unspecified) | 150 to 152
C=CC(=O)N1CCc2cc(OC)c(OC)cc2C12CCC(C(=O)OCC)(C(=O)OCC)CC2C1c2cc(OC)c(OC)cc2CCN1CC (stereo unspecified) | 150 to 151
CN(C)C(=O)c1csc(N(C)CC#CI)n1 | 148 to 150
O=C(O)C1CCc2c(c3cc(O)ccc3n2C(=O)c2ccccc2)C1 (stereo unspecified) | 224 to 227
O=C1c2ccc(F)cc2CCc2cccnc21 | 116 to 119
CCCCOCC(O)COc1ccc(-c2nc(-c3ccc(OCC(O)COCCCC)cc3O)nc(-c3c(C)cc(C)cc3C)n2)c(O)c1 (stereo unspecified) | 125 to 131
CC1(C)CC(N(CCCCO)S(C)(=O)=O)c2cc(OCc3ccccc3)ccc2O1 (stereo unspecified) | 113 to 115
Sc1nc2cc3ccccc3cc2o1 | 101 to 102
Cc1cccc(NC(=O)NCC(=O)N(CC(=O)OC2(C)CCCC2)c2ccccc2)c1 | 160
CC(=O)CCN1C[C@H]2Cc3ccccc3[C@H](c3ccccc3)[C@H]2C1 (racemic) | 121 to 124
Cc1cc2nc(Cl)cc(N)c2[nH]1 | 270
O=C(/C=C/c1ccc(N2CCOCC2)cc1)CC(=O)/C=C/c1ccc2cc[nH]c2c1 | 93 to 97
CNC(=NCCSCc1nc[nH]c1C)S(=O)(=O)O | 162 to 164
Cc1ccc(I(Cl)Cl)c([N+](=O)[O-])c1 | 50 to 52
NCc1ccc2c(c1)c(C1CCN(CCN3CCNC3=O)CC1)cn2-c1ccc(F)cc1 | 171 to 175
CCC(=O)NCCC1=CCC2=C1C1=C(CC2)OCCC1 | 85 to 88
O=C(Nc1cccc(S(=O)(=O)NC2CC2)c1)c1cnn2c(C(F)F)cc(-c3ccc(C(F)(F)F)cc3)nc12 | 252
O=c1ncc(C(F)(F)F)cn1COCc1ccc(Cl)cc1 | 120
COc1cc2c(cc1OC)C1C(CO)CSC(C=N)N1CC2 (stereo unspecified) | 149 to 151
Clc1ccc(C=CC(C=Cc2ccc(Cl)cc2)=NNC2=NCC(c3ccccc3)(c3ccccc3)N2)cc1 | 227
NC(=O)C(OC(=O)Nc1cccc(Cl)c1)(C(N)=O)c1ccccc1 | 196 to 198
O=C1OCCC1N[C@@H](Cc1ccccc1)C(=O)OCc1ccccc1 (stereo partly specified) | 46 to 47

Compound | melting point [°C]
CCOC(=O)c1ncc2[nH]c3cccc(Oc4ccc([N+](=O)[O-])cc4)c3c2c1COC | 231 to 232
CCc1cc2c(cc1CCSCC(N)=O)OCO2 | 98 to 99
Cc1ccccc1C(=O)P(=O)(c1ccccc1)c1ccccc1 | 107
N=C(OCC1CC1)N1CCC(c2nsc3ccccc23)CC1 | 85 to 87
O=C(NNc1ccc(NC(=S)Nc2ccc(NNC(=O)c3ccccc3)cc2)cc1)c1ccccc1 | 185 to 187
O=C1CC2OC(CS(=O)c3ccccc3)CN12 (racemic) | 119 to 120
COC(=O)CCCCc1csc(N)n1 | 131
NC1CCc2cc3c(cc2C1)OCC3 (stereo unspecified) | 60
COC(=O)c1cccn2ccnc12 | 67 to 69
Cc1nc2c(s1)CC(CO)CC2 (stereo unspecified) | 101 to 102
O=C(O)COc1ccc(C2=CC(=O)CCC2)c(Cl)c1Cl | 197 to 198
Nc1c(NCCCOc2cccc(C=O)c2)c(=O)c1=O | 203 to 206
Nc1ccc(Sc2ccccc2)cc1Br | 61 to 63
CC(C)(C)OC(=O)NC(N)Cc1ccccc1 (stereo unspecified) | 40 to 50
Cc1ccccc1C(=O)Nc1ccc(C(=O)N2CCS(=O)(=O)c3ccccc32)cc1 | 219 to 220
CCCCCCCOc1ccc(-c2ncc(C#N)c(Cl)n2)cc1 | 133 to 135
Cc1c(C)c(N2CCN(Cc3ccccc3)CC2)c(C)c2c1OC(C)(C)C2c1ccc(F)nc1 (stereo unspecified) | 76 to 79
CCN(CC)c1c(C(=O)O)n(-c2ccccc2)c2ccc(OC)cc12 | 141 to 143
O=C(Nc1ccc(C(F)(F)F)cc1)C1=NN(c2ccc(Cl)cc2)C(c2ccco2)C1 (stereo unspecified) | 167 to 171
COc1cc2c(cc1OC)C(C(COC(=O)Nc1ccccc1)COC(=O)Nc1ccccc1)N(Cc1ccccc1)CC2 (stereo unspecified) | 185
COCCOc1ccc(CCCO)c(Oc2ncc(Cl)cc2Cl)c1 | 83.9 to 84.5
Cc1c(CNC(=O)NO)c2cc(OCc3ccc4ccccc4n3)ccc2n1Cc1ccc(Cl)cc1 | 184 to 186

Compound | melting point [°C]
O=C(C=Cc1ccc(O)c([N+](=O)[O-])c1)NC1CCc2ccccc21 (stereo unspecified) | 203 to 205
O=C(O)CS(=O)(=O)Nc1c(F)cc(F)cc1F | 126 to 127
c1ccc(C(NCc2ccc(CNC(c3ccccc3)c3ccccc3)cc2)c2ccccc2)cc1 | 92 to 94
CN1CCc2nc3cc(Cl)ccc3c(Nc3ccccc3)c2C1 | 197 to 198
O=c1cc(CO)oc2cc(OCCCCl)ccc12 | 110 to 112
OCc1cnoc1-c1ccc(F)cc1F | 60 to 61
CC12CCC3C(CCC4CC(O[Si](c5ccccc5)(c5ccccc5)C(C)(C)C)CCC43C)C1CCC2C=C(Br)Br (stereo unspecified) | 69 to 71
NC(=O)c1ccc2cc(Nc3ccc(O)cc3)ccc2c1 | 260
COC(=O)c1ccc(C(Cc2cc(C)ccc2N2CCCCC2)C(N)=O)cc1 (stereo unspecified) | 124 to 126
O=C1Nc2c(Cl)cc(Cl)cc2C12CCCC2 | 175 to 176
O=C(NCc1ccccn1)c1ccc(C=Cc2ccccc2OCc2ccccc2)cc1 | 123 to 127
CC(C)S(=O)(=O)C1C(=O)N(Cc2ccccc2)C(=O)c2ccc(Cl)cc21 (stereo unspecified) | 150 to 152
CCCCCCCCCc1cc(=O)c2c(O)cc(O)cc2o1 | 101
CC(=O)NC1CC(C)(C)N(OC(C)=O)C(C)(C)C1 | 129 to 132
O=C(c1ccc(OC2CCOCC2)cc1)c1ccc([N+](=O)[O-])cc1 | 105 to 106
CCCNC(=O)C1CC(=O)N(Cc2ccccc2)C1 (stereo unspecified) | 86 to 87
O=S(=O)(Nc1ccc2[nH]ncc2c1)C1CCNCC1 | 120 to 123
N#Cc1c(Cl)c2ccccc2[nH]c1=O | > 250
Cc1scc2c1N(C(=O)NCCN1CCC(CCCCN3CCCCC3)CC1)c1ccccc1NC2=O | 186 to 187
N#Cc1cc(-c2ccoc2)c2ccc(OCc3cncc(-c4ccccc4)c3)cc2c1 | 138 to 140
CCCCCCCCC/C=C/C(=O)N[C@H]1CCCNC(=O)C1 | 87 to 88
COc1ccc(Nc2nc(Cl)cc(NC3CCCCCC3)n2)cc1Cl | 74 to 76

Other lines, results leading:

melting point [°C] | Compound
175 to 177 | COc1ccc(Cc2cnc(N)nc2N)cc1OCCCSc1ccc(NC(C)=O)cc1
258 | Cc1cc2[nH]c(=O)ccc(=O)c2cc1C
88 to 90 | CC(C)(NSc1nc2ccccc2s1)c1ccccc1
89 to 90 | COc1ccc2c(c1)C(=O)c1cccc(OC(C)C)c1-2
180 to 183 | Cc1nc2n(c(=O)c1CCN1CCC(C(=NO)c3ccc(F)cc3F)CC1)CCCC2
97 to 101 | CC(C)(C)OC(=O)NC(Cc1c[nH]cn1)C(=O)N1CCCC1C(N)=O (stereo unspecified)
262 to 264 | Cn1cc(-c2ccc(C(=O)O)cn2)cn1
120 to 122 | CCN1C(=O)C(=C(Cc2ccccc2)OC)SC1=S
237 to 238 | CNn1cc(C(=O)O)c(=O)c2cc(F)c(F)c(F)c21
121 to 122 | CC(C)(OCc1nn(Cc2ccccc2)c2ccccc12)C(=O)Nc1ccccn1
139 | Cc1ccc(-c2ccccc2)cc1Cn1c(C)nn(C)c1=O
273 to 275 | Cc1ccc(C)c(Cc2c3ccc(C(C)(C)C)cc3c(Cc3cc(C)ccc3C)c3ccc(C(C)(C)C)cc23)c1
226 to 228 | CN1C(=O)C(=Cc2nc(C(C)(C)C)c(O)c(C(C)(C)C)n2)SC1=S
187 to 193 | CCC1C(=O)c2cc(OCC(=O)O)c(C)c(C)c2C1=O (stereo unspecified)
258 to 260 | CC1(C)OC(=O)Nc2ccc(-c3cc(C(F)(F)F)cc(C(F)(F)F)c3)cc21
147 to 158 | Cc1cc(C)c(COc2cccc3c2C(=O)c2c(Cl)ccc4c2c-3nn4CCNCCO)c(C)c1
102 to 103 | CC(C)N1C(=O)c2ccccc2Oc2ccccc21
143 to 145 | Cc1nc(N2CCN(Cc3ccc(C(F)(F)F)o3)C2=O)sc1C(=O)NCc1ccccc1

melting point [°C] | Compound
110 to 111 | CCCN(CCC)C(=O)Cc1c(-c2ccc(C)cc2)nn2cccnc12
266 to 267 | CCc1c(Cl)c(CC)c(-c2c(O)c(C)nn(C)c2=O)c(CC)c1Cl
76 to 79 | COc1ccc(C2=NN(CC=Cc3ccccc3)C(=O)C3CCCCC23)cc1OC (stereo unspecified)
92 to 93 | CCC(C)c1c(Cl)nc(NC=O)nc1Cl (stereo unspecified)
122 to 125 | CC(C)(OCc1cc2nc(C(F)(F)F)ccc2n1S(=O)(=O)c1ccccc1)C(=O)O
158 to 162 | CC(C)CC(Sc1c(Cl)cccc1Cl)c1c(O)cc(-c2ccccc2)oc1=O (stereo unspecified)
170 | CC(C)(C)OC(=O)Nc1ccc(-c2ccccc2F)cc1NC(=O)CC(=O)c1cc(C#N)ccc1F
155 to 156 | CC(C)(C)c1cc(CCc2ccccc2NC(=O)NC2CCN(Cc3ccc(F)c(F)c3)CC2)cc(C(C)(C)C)c1O
330 | O=c1[nH]c2cc3[nH]c(-c4ccnnc4)nc3cc2o1
45 | CCC1(C)OC(c2ccc(S(C)(=O)=O)cc2)=C(c2ccc(C(C)(C)C)cc2)C1=O (stereo unspecified)
210 to 212 | CCOC(=O)C1=C(C)Nc2nnnn2C1c1cccc([N+](=O)[O-])c1 (stereo unspecified)
186 | COc1ccc(Nc2nc(Cl)nc(NC3CC3)n2)cc1F
158 | CC1(C)Oc2cc([N+](=O)[O-])sc2C(N2CCCCC2=O)C1O (stereo unspecified)
113 to 115 | CCCS(=O)(=O)c1cc(C(C)C)c(C#N)cc1C(C)C
256 to 258 | c1csc(-c2ccc3cc(-c4cccs4)ccc3c2)c1
> 350 | Cn1c(=O)[nH]c2c(C(N)=O)nc(-c3cccnc3)nc21
146 | CCOC(=O)CNc1nc(-c2ccccc2)c2cc(Cl)ccc2n1
